The first assay addresses T1, H3 receptor (Cavia porcellus, UniProt Q9JI35).
T1 construct: The source of the H3 receptors in this experiment was guinea pig brain; from tissue; host or cells: guinea pig brain membranes
In words: H3 Receptor Binding Assay (displacement of [3H]R-α-methylhistamine or [3H]-N-methylhistamine). To be noted: guinea pig brain membranes; 3 nM [3H]R-α-methylhistamine or [3H]-N-methylhistamine; 30°, 30 min; duplicate, standard error less than 10%. Here is the method:
The compounds of this invention are either agonists or antagonists of the histamine H3 receptor. […] The animals used weighed 400-600 g. The tissue was homogenized using a Polytron in a solution of 50 mM Tris, pH 7.5. The final concentration of tissue in the homogenization buffer was 10% w/v. The homogenates were centrifuged at 1000×g for 10 min. in order to remove clumps of tissue and debris. […] The membranes were frozen and stored at -70° C. until needed. All compounds to be tested were dissolved in DMSO and then diluted into the binding buffer (50 mM Tris, pH 7.5) such that the final concentration was 2 μg/ml with 0.1% DMSO. Membranes were then added (400 μg of protein) to the reaction tubes. […] Bound ligand was separated from unbound ligand by filtration, and the amount of radioactive ligand bound to the membranes was quantitated by liquid scintillation spectrometry.
T1 sequence (Q9JI35 whole entry): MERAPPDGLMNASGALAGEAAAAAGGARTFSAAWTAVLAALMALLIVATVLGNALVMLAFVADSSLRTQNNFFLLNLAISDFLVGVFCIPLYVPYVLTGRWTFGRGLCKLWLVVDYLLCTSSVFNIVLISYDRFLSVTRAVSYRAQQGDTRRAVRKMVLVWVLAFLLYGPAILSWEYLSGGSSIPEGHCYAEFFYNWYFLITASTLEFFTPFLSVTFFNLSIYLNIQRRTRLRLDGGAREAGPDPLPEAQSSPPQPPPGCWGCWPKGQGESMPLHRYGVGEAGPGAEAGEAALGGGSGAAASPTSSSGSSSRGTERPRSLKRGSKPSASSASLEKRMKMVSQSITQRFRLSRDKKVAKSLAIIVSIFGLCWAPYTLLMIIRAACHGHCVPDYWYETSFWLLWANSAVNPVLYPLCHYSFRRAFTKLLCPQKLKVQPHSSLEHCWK
Usually Ki stands for the equilibrium dissociation constant of an inhibitor or competing ligand from its target. The compound `O=C(CCN1CCC(CCc2cnc[nH]2)C1)Nc1ccc(Cl)cc1` (centres unmarked) [Compound 45] came in with a Ki of 0.9 nM.
`O=C(CCN1CCC(Cc2cnc[nH]2)CC1)Nc1cccc(Cl)c1` [Compound 81]: the Ki turned out to be 0.2 nM. Against the preceding compound, the Ki is about 4.5-fold lower.
As to `O=C(CCN1CCC(Cc2cnc[nH]2)CC1)Nc1ccc(I)cc1` [Compound 89], the Ki was 5 nM.
On the same count and under the same terms, next, `O=C(Nc1cc(Cl)cc(Cl)c1)N1CCC(Cc2cnc[nH]2)CC1` [Compound 85]: 220 nM; `O=C(CCN1CCC(CCc2cnc[nH]2)CC1)Nc1ccc(Cl)cc1` [Compound 116]: 11 nM; `FC(F)(F)c1ccc(NCCCN2CCC(CCc3cnc[nH]3)CC2)cc1` [Compound 114]: 60 nM.
`O=C(CCN1CCC(Cc2cnc[nH]2)CC1)Nc1ccc(Cl)cc1` [Compound 84]: affinity was put at a Ki of 0.4 nM.
Turning to `Clc1ccc(OCCCN2CCC(Cc3cnc[nH]3)CC2)cc1` [Compound 88], the Ki is 9 nM. This Ki is about 22-fold higher than that of the compound before.
Compound `O=C(CN1CCC(Cc2cnc[nH]2)CC1)Nc1ccc(Cl)cc1` [Compound 90] came in with a Ki of 90 nM.
`O=C(CC(=O)N1CCC(Cc2cnc[nH]2)CC1)Nc1cccc(Cl)c1` [Compound 95] registered a Ki of 50 nM.
The same measure, in the same setting: next, `O=S(=O)(c1ccc(OC(F)(F)F)cc1)N1CCC(CCc2cnc[nH]2)C1` (centres unmarked) [Compound 97]: 58 nM.
Same read-out and setting: the same measure for `O=C(Nc1ccc(Cl)cc1)N1CCC(Cc2cnc[nH]2)CC1` [Compound 92]: 160 nM.
In turn, `O=C(CCOc1ccccc1)N1CCC(Cc2cnc[nH]2)CC1` [Compound 86] registered a Ki of 5 nM.
`O=C(Cc1ccc(Cl)c(Cl)c1)N1CCC(CCc2cnc[nH]2)CC1` [Compound 115] had a Ki of 57 nM.
The compound `O=C(CCN1CCC(CCc2cnc[nH]2)CC1)Nc1ccc(C(F)(F)F)cc1` [Compound 117] displayed a Ki of 50 nM.
As to `O=C(Nc1cccc(Cl)c1)N1CCC(Cc2cnc[nH]2)CC1` [Compound 91], the Ki worked out at 20 nM. This Ki lies about 2.5-fold lower than the previous one.
`O=C(CCN1CCC(Cc2cnc[nH]2)CC1)Nc1cc(Cl)cc(Cl)c1` [Compound 83] yielded a Ki of 0.7 nM.
Turning to `O=C(CCc1ccc(Cl)cc1)N1CCC(Cc2cnc[nH]2)CC1` [Compound 93], the Ki was determined as 40 nM.
The compound `O=C(CCN1CCC(Cc2c[nH]cn2)CC1)NCCc1ccc(Cl)cc1` [Compound 82] registered a Ki of 0.7 nM. Compared with the last compound, the Ki is about 57-fold lower.
In turn, `O=C(CCOc1ccc(Cl)cc1)N1CCC(Cc2cnc[nH]2)CC1` [Compound 87] came in with a Ki of 9 nM.
The compound `c1ccc(OCCCN2CCC(Cc3cnc[nH]3)CC2)cc1` [Compound 79] returned a Ki of 4 nM.
`O=S(=O)(c1ccc(Cl)cc1)N1CCC(Cc2cnc[nH]2)CC1` [Compound 78] registered a Ki of 150 nM.
Turning to `O=C(Nc1cccc(Cl)c1)N1CCC(CCc2cnc[nH]2)CC1` [Compound 118], the affinity corresponds to a Ki of 210 nM.
Take `O=C(CCCc1ccccc1)N1CCC(Cc2cnc[nH]2)CC1` [Compound 96]: the affinity corresponds to a Ki of 8 nM. Compared with the last compound, the Ki is about 26-fold lower.
Still for that read-out and setting: next, `O=C(CCN1CCC(Cc2c[nH]cn2)CC1)Nc1cccc(F)c1` [Compound 94]: 0.1 nM.

In another assay the test system is H3 receptors in rat brain.
Assay: not given
To be noted: cited from Arrang et al.; cited from earlier work.
For the compound `NCCc1c[nH]cn1` [histamine], the “maximal inhibition of release” value is listed as “approximately 60%”.

These data come from patent US6100279A, “Imidazoylalkyl substituted with a five, six or seven membered heterocyclic ring containing one nitrogen atom” (Schering Corporation, priority 1998, dated 2000).
